Values quoted from earlier work in patent publication US12036313B2, “Personal lubricants comprising lambda-carrageenan” (LANVIRA, LLC, priority 2018, dated 2024).

Tested on: HPV
Conditions: in vitro and in vivo

lambda-carrageenan
Activity against HPV: active against HPV
